# Experimental data as given in patent US20180057505A1, “BICYCLIC HETEROARYL COMPOUNDS USEFUL AS INHIBITORS OF THE PAR-2 SIGNALING PATHWAY” (VERTEX PHARMACEUTICALS INCORPORATED, priority 2015, published 2018).
# Key:
# Format in all cases: cell-based
# [1] = biological target: T1, PAR2 (HT-29 cells) (Homo sapiens, UniProt P55085); experiment: Ca FLIPR TETRA assay, ANTAGONIST mode, activator 8 μM SLIGKV; conditions: HT-29 cells; activator 8 μM SLIGKV; Method A: maximal concentration of antagonist 0.1, 1 or 2 μM
# T1 construct: host or cells: HT-29
# T1 sequence (P55085 26-397): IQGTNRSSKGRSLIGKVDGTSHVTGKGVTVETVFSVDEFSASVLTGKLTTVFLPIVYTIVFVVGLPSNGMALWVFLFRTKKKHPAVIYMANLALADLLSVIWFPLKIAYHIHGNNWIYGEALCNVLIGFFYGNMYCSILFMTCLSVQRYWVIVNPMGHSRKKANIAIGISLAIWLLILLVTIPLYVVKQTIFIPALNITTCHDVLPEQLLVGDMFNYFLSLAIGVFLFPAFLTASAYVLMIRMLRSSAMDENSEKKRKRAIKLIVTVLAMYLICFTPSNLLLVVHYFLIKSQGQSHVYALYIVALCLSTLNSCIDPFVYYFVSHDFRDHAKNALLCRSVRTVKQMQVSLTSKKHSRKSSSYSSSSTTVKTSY
# Summary of the method: (§1)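 Antagonist-mode FLIPR Tetra Ca2+ read: dye-loaded HT-29 cells preincubated 30 min at r.t. with compound (first read checks agonism alone), then challenged with final 3.1 U/mL trypsin, 8 μM SLIGKV, 1 U/mL thrombin or 0.6 μM UTP. Cells plated overnight in 1% FBS McCoy's; Calcium 5 loading 45 min 37 °C plus 15 min r.t.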
# [2] = biological target: T1, PAR2 (HT-29 cells); experiment: Ca FLIPR TETRA assay, ANTAGONIST mode, activator 3.1 U/mL trypsin; conditions: HT-29 cells; activator 3.1 U/mL trypsin; Method A: maximal concentration of antagonist 0.1, 1 or 2 μM
# Summary of the method: as §1
# [3] = test system: Thrombin-stimulated Ca2+ response in HT-29 cells; experiment: Ca FLIPR TETRA assay, ANTAGONIST mode, activator 1 U/mL Thrombin; conditions: Homo sapiens; HT-29 cells, activator 1 U/mL Thrombin
# Summary of the method: as §1
# [4] = test system: UTP-stimulated Ca2+ response in HT-29 cells; experiment: Ca FLIPR TETRA assay, ANTAGONIST mode, activator 0.6 μM UTP; conditions: Homo sapiens; HT-29 cells, activator 0.6 μM UTP
# Summary of the method: as §1
IC50 [1],IC50 [2],IC50 [3],IC50 [4],Structure (SMILES)
12 nM,18 nM,> 2000 nM,> 2000 nM,CC(C)(C)c1cc(-c2ccc(Cl)cc2)nc2cc(C(=O)N3CCNC(=O)CC3(C)C)oc12 [Example I-323]
0.2 nM,0.4 nM,> 2000 nM,> 2000 nM,CC(C)(C)c1cc(-c2ccc(Cl)c(F)c2)nc2cc(C(=O)N3CCN(C(=O)CC4(C(=O)O)CCCC4)CC3(C)C)oc12 [Example I-324]
20 nM,20 nM,> 2000 nM,> 2000 nM,CC(C)(C)c1cc(-c2ccc(Cl)c(F)c2)nc2cc(C(=O)N3CCN(c4cccnc4)C(=O)C3(C)C)oc12 [Example I-325]
23 nM,38 nM,> 2000 nM,> 2000 nM,CC(C)(C)c1cc(-c2ccc(Cl)cc2)nc2cc(C(=O)N3CCN(c4cccnc4)C(=O)C3(C)C)oc12 [Example I-326]
10 nM,12 nM,> 2000 nM,> 2000 nM,CC(C)(C)c1cc(-c2ccc(Cl)c(F)c2)nc2cc(C(=O)N3CCN(c4ccncc4)C(=O)C3(C)C)oc12 [Example I-327]
16 nM,22 nM,> 2000 nM,> 2000 nM,CC(C)(C)c1cc(-c2ccc(Cl)cc2)nc2cc(C(=O)N3CCN(c4ccncc4)C(=O)C3(C)C)oc12 [Example I-328]
12 nM,13 nM,> 2000 nM,> 2000 nM,CC(C)(C)c1cc(-c2ccc(Cl)c(F)c2)nc2cc(C(=O)N3CCN(c4ccccn4)C(=O)C3(C)C)oc12 [Example I-329]
21 nM,32 nM,> 2000 nM,> 2000 nM,CC(C)(C)c1cc(-c2ccc(Cl)cc2)nc2cc(C(=O)N3CCN(c4ccccn4)C(=O)C3(C)C)oc12 [Example I-330]
1.3 nM,2.8 nM,1800 nM,> 2000 nM,CC(C)(C)c1cc(-c2ccc(Cl)c(F)c2)nc2cc(C(=O)N3CCN(c4ncc(-c5nnn[nH]5)cn4)CC3(C)C)oc12 [Example I-331]
0.4 nM,0.7 nM,1800 nM,2000 nM,CC(C)[C@H](CC(=O)N1CCN(C(=O)c2cc3nc(-c4ccc(Cl)cc4)cc(C(C)(C)C)c3o2)C(C)(C)C1)C(=O)O [Example I-333]
1.4 nM,1.6 nM,> 2000 nM,> 2000 nM,Cc1cncc(N2CCN(C(=O)c3cc4nc(-c5ccc(Cl)c(F)c5)cc(C(C)(C)C)c4o3)C(C)(C)C2=O)n1 [Example I-334]
91 nM,28.5 nM,> 2000 nM,> 2000 nM,CC(C)(C)c1cc(-c2ccc(Cl)c(F)c2)nc2cc(C(=O)N3CCC(=O)NCC3(C)C)oc12 [Example I-335]
6.3 nM,9.6 nM,> 2000 nM,> 2000 nM,CC(C)(C)c1cc(-c2ccc(Cl)c(F)c2)nc2cc(C(=O)N3CCNC(=O)CC3(C)C)oc12 [Example I-336]
0.4 nM,0.9 nM,> 2000 nM,> 2000 nM,CC(C)(C)c1cc(-c2ccc(Cl)cc2)nc2cc(C(=O)N3CCN(C(=O)CC4(C(=O)O)CCC4)CC3(C)C)oc12 [Example I-337]
0.3 nM,0.5 nM,> 2000 nM,> 2000 nM,CC1(C)CCC(c2cc(C(C)(C)C)c3oc(C(=O)N4CCN(C(=O)CC5(C(=O)O)CCC5)CC4(C)C)cc3n2)CC1 [Example I-338]
1.3 nM,3.1 nM,> 2000 nM,> 2000 nM,Cc1ccnc(N2CCN(C(=O)c3cc4nc(C5CCC(C)(C)CC5)cc(C(C)(C)C)c4o3)C(C)(C)C2=O)n1 [Example I-339]
0.9 nM,1.7 nM,> 2000 nM,> 2000 nM,Cc1ccnc(N2CCN(C(=O)c3cc4nc(-c5ccc(Cl)cc5)cc(C(C)(C)C)c4o3)C(C)(C)C2=O)n1 [Example I-340]
1.6 nM,4.4 nM,> 2000 nM,1700 nM,CC(C)(C)c1cc(-c2ccc(Cl)cc2)nc2cc(C(=O)N3CCN(c4ncc(-c5nnn[nH]5)cn4)CC3(C)C)oc12 [Example I-341]
94 nM,90 nM,> 2000 nM,> 2000 nM,Cn1nccc1S(=O)(=O)N1CCN(C(=O)c2cc3nc(-c4ccc(Cl)c(F)c4)cc(C(C)(C)C)c3o2)C(C)(C)C1=O [Example I-342]

IC50 [1],IC50 [2],IC50 [3],IC50 [4],Structure (SMILES)
0.2 nM,0.4 nM,1700 nM,2100 nM,CC(C)[C@H](CC(=O)N1CCN(C(=O)c2cc3nc(-c4ccc(Cl)c(F)c4)cc(C(C)(C)C)c3o2)C(C)(C)C1)C(=O)O [Example I-343]
0.1 nM,0.2 nM,> 2000 nM,> 2000 nM,CC(C)(C)c1cc(-c2ccc(Cl)c(F)c2)nc2cc(C(=O)N3CCN(c4cccc(-c5nnn[nH]5)n4)CC3(C)C)oc12 [Example I-344]
0.3 nM,0.7 nM,> 2000 nM,> 2000 nM,CC1(C)CCC(c2cc(C(C)(C)C)c3oc(C(=O)N4CCN(c5cccc(-c6nnn[nH]6)n5)CC4(C)C)cc3n2)CC1 [Example I-345]
1.6 nM,4.1 nM,2100 nM,1000 nM,CC1(C)CCC(c2cc(C(C)(C)C)c3oc(C(=O)N4CCN(c5ncc(-c6nnn[nH]6)cn5)CC4(C)C)cc3n2)CC1 [Example I-346]
290 nM,500 nM,> 2000 nM,> 2000 nM,CN(CC(=O)O)CC(=O)N1CCN(C(=O)c2cc3nc(-c4ccc(Cl)cc4)cc(C(C)(C)C)c3o2)C(C)(C)C1 [Example I-347]
67 nM,38 nM,> 2000 nM,> 2000 nM,CC(C)(C)c1cc(-c2ccc(Cl)c(F)c2)nc2cc(C(=O)N3CCN(c4ccnnc4)CC3(C)C)oc12 [Example I-348]
80 nM,75 nM,> 2000 nM,> 2000 nM,CC(C)(C)c1cc(-c2ccc(Cl)cc2)nc2cc(C(=O)N3CCN(c4ccnnc4)CC3(C)C)oc12 [Example I-349]
0.08 nM,0.3 nM,> 2000 nM,> 2000 nM,CC(C)(C)c1cc(-c2ccc(Cl)cc2)nc2cc(C(=O)N3CCN(c4cccc(-c5nnn[nH]5)n4)CC3(C)C)oc12 [Example I-350]
5.1 nM,9 nM,> 2000 nM,> 2000 nM,CC(C)(C)c1cc(-c2ccc(Cl)c(F)c2)nc2cc(C(=O)N3CCN(c4ncccc4C(=O)O)CC3(C)C)oc12 [Example I-351]
2.1 nM,3.1 nM,> 2000 nM,2000 nM,Cc1ccc(C(=O)O)c(N2CCN(C(=O)c3cc4nc(-c5ccc(Cl)c(F)c5)cc(C(C)(C)C)c4o3)C(C)(C)C2)n1 [Example I-352]
38 nM,34 nM,> 2000 nM,> 2000 nM,CC(C)(C)c1cc(-c2ccc(Cl)c(F)c2)nc2cc(C(=O)N3CCN(S(C)(=O)=O)C(=O)C3(C)C)oc12 [Example I-353]
0.3 nM,0.4 nM,> 2000 nM,> 2000 nM,CC1(C)CCC(c2cc(C(C)(C)C)c3oc(C(=O)N4CCN(C(=O)CCC(C)(C)C(=O)O)CC4(C)C)cc3n2)CC1 [Example I-354]
14 nM,16 nM,> 2000 nM,> 2000 nM,Cc1ccc(N2CCN(C(=O)c3cc4nc(-c5ccc(Cl)c(F)c5)cc(C(C)(C)C)c4o3)C(C)(C)C2=O)nn1 [Example I-355]
12 nM,14.1 nM,> 2000 nM,> 2000 nM,Cn1cc(N2CCN(C(=O)c3cc4nc(-c5ccc(Cl)c(F)c5)cc(C(C)(C)C)c4o3)C(C)(C)C2=O)nn1 [Example I-356]
8.3 nM,10 nM,> 2000 nM,> 2000 nM,CC(C)(C)c1cc(-c2ccc(Cl)c(F)c2)nc2cc(C(=O)N3CCN(c4cccnn4)C(=O)C3(C)C)oc12 [Example I-357]
37 nM,43 nM,> 2000 nM,> 2000 nM,Cc1nccnc1N1CCN(C(=O)c2cc3nc(-c4ccc(Cl)c(F)c4)cc(C(C)(C)C)c3o2)C(C)(C)C1=O [Example I-359]
2.4 nM,3.7 nM,> 2000 nM,> 2000 nM,CC(C)(C)c1cc(-c2ccc(Cl)c(F)c2)nc2cc(C(=O)N3CCN(c4cnccn4)C(=O)C3(C)C)oc12 [Example I-360]
2.8 nM,4.6 nM,> 2000 nM,> 2000 nM,CC(C)(C)c1cc(-c2ccc(Cl)c(F)c2)nc2cc(C(=O)N3CCN(c4ncccn4)C(=O)C3(C)C)oc12 [Example I-361]
